Legend:
Type in all cases: biochemical
JAK3 = molecular target: T1, JAK3 (Homo sapiens, UniProt P52333); test: Inhibition of a panel of kinases, in vitro HotSpot kinase assay: JAK3; details: D-compounds panel data; 1 μM ATP; read-out: IC50 JAK3
T1 sequence (P52333 1-1124): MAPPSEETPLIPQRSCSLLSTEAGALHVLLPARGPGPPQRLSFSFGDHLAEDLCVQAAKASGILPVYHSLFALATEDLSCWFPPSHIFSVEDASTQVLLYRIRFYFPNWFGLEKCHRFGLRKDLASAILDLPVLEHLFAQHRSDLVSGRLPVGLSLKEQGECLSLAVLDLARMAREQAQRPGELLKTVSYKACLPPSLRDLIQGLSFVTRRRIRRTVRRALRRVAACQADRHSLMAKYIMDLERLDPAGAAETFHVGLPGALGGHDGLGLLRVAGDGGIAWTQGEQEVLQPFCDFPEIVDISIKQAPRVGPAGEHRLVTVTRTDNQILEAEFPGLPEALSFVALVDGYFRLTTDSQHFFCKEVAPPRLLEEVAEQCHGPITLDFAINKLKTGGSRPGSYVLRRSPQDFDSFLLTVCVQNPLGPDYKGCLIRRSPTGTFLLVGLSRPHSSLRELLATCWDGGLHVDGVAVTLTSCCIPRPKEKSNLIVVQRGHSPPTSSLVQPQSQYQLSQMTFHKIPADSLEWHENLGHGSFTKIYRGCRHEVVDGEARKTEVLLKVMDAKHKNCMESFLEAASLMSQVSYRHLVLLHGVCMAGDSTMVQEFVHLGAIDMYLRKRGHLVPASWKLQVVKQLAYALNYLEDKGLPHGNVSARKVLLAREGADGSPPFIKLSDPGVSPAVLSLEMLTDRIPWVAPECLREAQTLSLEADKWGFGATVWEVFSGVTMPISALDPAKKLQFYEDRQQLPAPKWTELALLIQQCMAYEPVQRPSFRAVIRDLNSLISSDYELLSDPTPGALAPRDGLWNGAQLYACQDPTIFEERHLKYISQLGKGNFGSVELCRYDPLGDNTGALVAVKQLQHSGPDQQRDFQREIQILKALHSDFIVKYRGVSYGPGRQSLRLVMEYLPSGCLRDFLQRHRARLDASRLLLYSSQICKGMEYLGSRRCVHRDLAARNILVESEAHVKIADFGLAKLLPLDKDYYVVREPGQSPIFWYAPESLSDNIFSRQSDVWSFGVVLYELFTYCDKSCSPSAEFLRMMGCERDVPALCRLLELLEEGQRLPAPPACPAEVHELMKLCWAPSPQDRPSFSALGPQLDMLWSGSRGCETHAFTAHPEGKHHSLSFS

SRC = SRC (Homo sapiens, UniProt P12931); test: Inhibition of a panel of kinases, in vitro HotSpot kinase assay: SRC; details: D-compounds panel data; 1 μM ATP
Protocol: (§1) The degree of inhibition of a panel of kinases is determined using the in vitro HotSpot kinase assay (purified enzymes, ^33P-ATP, an appropriate substrate and 1 μM ATP).

TEC = molecular target: T2, TEC (Homo sapiens, UniProt P42680); test: Inhibition of a panel of kinases, in vitro HotSpot kinase assay: TEC; details: D-compounds panel data; 1 μM ATP
T2 sequence (P42680 1-631): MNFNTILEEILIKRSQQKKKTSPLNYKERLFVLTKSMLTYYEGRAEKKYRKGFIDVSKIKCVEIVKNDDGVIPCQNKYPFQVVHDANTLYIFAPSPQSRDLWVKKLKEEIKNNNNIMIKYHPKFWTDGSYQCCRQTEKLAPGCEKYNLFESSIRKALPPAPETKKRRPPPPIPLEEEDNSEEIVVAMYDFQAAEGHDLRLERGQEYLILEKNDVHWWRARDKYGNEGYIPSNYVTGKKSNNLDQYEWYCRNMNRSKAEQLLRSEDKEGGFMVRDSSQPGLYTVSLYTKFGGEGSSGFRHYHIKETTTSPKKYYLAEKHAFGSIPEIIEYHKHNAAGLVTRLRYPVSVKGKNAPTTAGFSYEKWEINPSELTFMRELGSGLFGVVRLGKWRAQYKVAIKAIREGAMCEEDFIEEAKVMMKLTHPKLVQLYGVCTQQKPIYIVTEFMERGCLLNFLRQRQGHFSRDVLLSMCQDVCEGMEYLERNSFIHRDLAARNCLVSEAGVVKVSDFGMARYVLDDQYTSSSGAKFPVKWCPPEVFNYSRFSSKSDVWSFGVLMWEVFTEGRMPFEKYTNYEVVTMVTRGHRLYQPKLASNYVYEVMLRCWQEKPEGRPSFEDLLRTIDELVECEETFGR
Protocol: as §1

SRC, sequence (P12931 whole entry): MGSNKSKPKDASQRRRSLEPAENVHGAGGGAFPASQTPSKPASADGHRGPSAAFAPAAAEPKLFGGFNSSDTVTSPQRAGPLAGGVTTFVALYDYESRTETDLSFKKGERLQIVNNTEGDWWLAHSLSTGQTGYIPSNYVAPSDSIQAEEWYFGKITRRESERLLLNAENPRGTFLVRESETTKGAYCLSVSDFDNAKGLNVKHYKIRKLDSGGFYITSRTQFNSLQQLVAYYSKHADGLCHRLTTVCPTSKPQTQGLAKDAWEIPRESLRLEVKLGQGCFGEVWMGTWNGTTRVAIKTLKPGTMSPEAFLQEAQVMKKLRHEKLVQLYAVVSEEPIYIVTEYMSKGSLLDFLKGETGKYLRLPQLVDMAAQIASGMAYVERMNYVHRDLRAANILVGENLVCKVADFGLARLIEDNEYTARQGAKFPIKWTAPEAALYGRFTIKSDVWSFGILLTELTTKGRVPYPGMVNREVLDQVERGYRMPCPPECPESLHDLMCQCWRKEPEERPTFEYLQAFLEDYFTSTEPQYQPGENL

SMILES	IC50 (JAK3) [nM]	IC50 (SRC) [nM]	IC50 (TEC) [nM]
C[C@@H]1[C@H](NC(=O)c2cc(C3CC3)n[nH]2)CCCN1c1cnc(C(N)=O)c(Nc2cnn(C)c2)n1 [Example D-252, 5-[(2R,3R)-3-(3-cyclopropyl-1H-pyrazole-5-amido)-2-methylpiperidin-1-yl]-3-[(1-methyl-1H-pyrazol-4-yl)amino]pyrazine-2-carboxamide]	100 to 1000	10 to 100	≤ 10
C[C@@H]1[C@H](NC(=O)c2ccc(C(C)(C)O)cc2F)CCCN1c1nnc(C(N)=O)c(Nc2cnn(C)c2)n1 [Example D-308, 3-[(2R,3R)-3-[2-fluoro-4-(2-hydroxypropan-2-yl)benzamido]-2-methylpiperidin-1-yl]-5-[(1-methyl-1H-pyrazol-4-yl)amino]-1,2,4-triazine-6-carboxamide]	1000 to 10000	10 to 100	≤ 10
C[C@@H]1[C@H](NC(=O)c2coc(C3CC3)n2)CCCN1c1cnc(C(N)=O)c(Nc2cnn(C)c2)n1 [Example D-257, 5-[(2R,3R)-3-(2-cyclopropyl-1,3-oxazole-4-amido)-2-methylpiperidin-1-yl]-3-[(1-methyl-1H-pyrazol-4-yl)amino]pyrazine-2-carboxamide]	100 to 1000	10 to 100	≤ 10
C[C@@H]1[C@H](NC(=O)c2ccc(C3CC3)cn2)CCCN1c1cnc(C(N)=O)c(Nc2ccc(OC3CCN(C)CC3)cc2)n1 [Example D-297, 5-[(2R,3R)-3-(5-cyclopropylpyridine-2-amido)-2-methylpiperidin-1-yl]-3-({4-[(1-methylpiperidin-4-yl)oxy]phenyl}amino)pyrazine-2-carboxamide]	100 to 1000	10 to 100	≤ 10
C[C@@H]1[C@H](NC(=O)c2c[nH]c(C3CC3)n2)CCCN1c1cnc(C(N)=O)c(Nc2cnn(C)c2)n1 [Example D-264, 5-[(2R,3R)-3-(2-cyclopropyl-1H-imidazole-4-amido)-2-methylpiperidin-1-yl]-3-[(1-methyl-1H-pyrazol-4-yl)amino]pyrazine-2-carboxamide]	1000 to 10000	10 to 100	≤ 10
COCCN(C)Cc1cc(Nc2nc(N3CCC[C@@H](NC(=O)c4ccc(C5CC5)cc4)[C@H]3C)cnc2C(N)=O)sn1 [Example D-269, 5-[(2R,3R)-3-(4-cyclopropylbenzamido)-2-methylpiperidin-1-yl]-3-[(3-{[(2-methoxyethyl)(methyl)amino]methyl}-1,2-thiazol-5-yl)amino]pyrazine-2-carboxamide]	1000 to 10000	10 to 100	100 to 1000
C[C@@H]1[C@H](NC(=O)c2ccc(C(C)(C)O)cc2F)CCCN1c1cnc(C(N)=O)c(Nc2cnn(C)c2)n1 [Example D-302, 5-[(2R,3R)-3-[2-fluoro-4-(2-hydroxypropan-2-yl)benzamido]-2-methylpiperidin-1-yl]-3-[(1-methyl-1H-pyrazol-4-yl)amino]pyrazine-2-carboxamide]	100 to 1000	10 to 100	≤ 10
C[C@@H]1[C@H](NC(=O)N(C)C)CCCN1c1cnc(C(N)=O)c(Nc2ccc(N3CCC(F)(F)CC3)cc2)n1 [Example D-306, 3-{[4-(4,4-difluoropiperidin-1-yl)phenyl]amino}-5-[(2R,3R)-3-[(dimethylcarbamoyl)amino]-2-methylpiperidin-1-yl]pyrazine-2-carboxamide]	1000 to 10000	100 to 1000	10 to 100

Other lines, results leading:

IC50 (JAK3) [nM]	IC50 (SRC) [nM]	IC50 (TEC) [nM]	SMILES
1000 to 10000	10 to 100	10 to 100	C[C@@H]1[C@H](NC(=O)c2ccc(C3CC3)cc2)CCCN1c1cnc(C(N)=O)c(Nc2cnn(C3CCN(CC(F)(F)F)CC3)c2)n1 [Example D-293, 5-[(2R,3R)-3-(4-cyclopropylbenzamido)-2-methylpiperidin-1-yl]-3-({1-[1-(2,2,2-trifluoroethyl)piperidin-4-yl]-1H-pyrazol-4-yl}amino)pyrazine-2-carboxamide]
1000 to 10000	10 to 100	≤ 10	C[C@@H]1[C@H](NC(=O)c2ccc(C3CC3)cc2)CCCN1c1cnc(C(N)=O)c(Nc2cnn(C3CCOCC3)c2)n1 [Example D-274, 5-[(2R,3R)-3-(4-cyclopropylbenzamido)-2-methylpiperidin-1-yl]-3-{[1-(oxan-4-yl)-1H-pyrazol-4-yl]amino}pyrazine-2-carboxamide]
1000 to 10000	10 to 100	≤ 10	C[C@@H]1[C@H](NC(=O)c2ccc3cnn(C)c3c2)CCCN1c1cnc(C(N)=O)c(Nc2cnn(C)c2)n1 [Example D-259, N-[(2R,3R)-1-{5-carbamoyl-6-[(1-methyl-1H-pyrazol-4-yl)amino]pyrazin-2-yl}-2-methylpiperidin-3-yl]-1-methyl-1H-indazole-6-carboxamide]
> 10000	10 to 100	≤ 10	C[C@@H]1[C@H](NC(=O)c2ccc(C3CC3)cc2)CCCN1c1cnc(C(N)=O)c(Nc2cnn(-c3ccncc3)c2)n1 [Example D-284, 5-[(2R,3R)-3-(4-cyclopropylbenzamido)-2-methylpiperidin-1-yl]-3-{[1-(pyridin-4-yl)-1H-pyrazol-4-yl]amino}pyrazine-2-carboxamide]
100 to 1000	≤ 10	≤ 10	C[C@@H]1[C@H](NC(=O)c2ccc(C3CC3)cc2)CCCN1c1cnc(C(N)=O)c(Nc2cc(C3CCN(C)CC3)ns2)n1 [Example D-312, 5-[(2R,3R)-3-(4-cyclopropylbenzamido)-2-methylpiperidin-1-yl]-3-{[3-(1-methylpiperidin-4-yl)-1,2-thiazol-5-yl]amino}pyrazine-2-carboxamide]
> 10000	100 to 1000	10 to 100	C[C@@H]1[C@H](NC(=O)c2ccc(C3CC3)cc2)CCCN1c1cnc(C(N)=O)c(Nc2cnn(C3CCC(F)(F)CC3)c2)n1 [Example D-307, 5-[(2R,3R)-3-(4-cyclopropylbenzamido)-2-methylpiperidin-1-yl]-3-{[1-(4,4-difluorocyclohexyl)-1H-pyrazol-4-yl]amino}pyrazine-2-carboxamide]
> 10000	1000 to 10000	10 to 100	CCOCCOc1ccc(Nc2nc(N3CCC[C@@H](NC(=O)c4ccc(C5CC5)cc4)[C@H]3C)cnc2C(N)=O)cc1 [Example D-299, 5-[(2R,3R)-3-(4-cyclopropylbenzamido)-2-methylpiperidin-1-yl]-3-{[4-(2-ethoxyethoxy)phenyl]amino}pyrazine-2-carboxamide]
> 10000	> 10000	> 10000	C[C@@H]1[C@H](NC(=O)c2ccc(C3CC3)cc2)CCCN1c1cnc(C(N)=O)c(Nc2cnn(C)c2C(F)(F)F)n1 [Example D-276, 5-[(2R,3R)-3-(4-cyclopropylbenzamido)-2-methylpiperidin-1-yl]-3-{[1-methyl-5-(trifluoromethyl)-1H-pyrazol-4-yl]amino}pyrazine-2-carboxamide]
1000 to 10000	10 to 100	≤ 10	C[C@@H]1[C@H](NC(=O)c2ccc3c(cnn3C)c2)CCCN1c1cnc(C(N)=O)c(Nc2cnn(C)c2)n1 [Example D-254, N-[(2R,3R)-1-{5-carbamoyl-6-[(1-methyl-1H-pyrazol-4-yl)amino]pyrazin-2-yl}-2-methylpiperidin-3-yl]-1-methyl-1H-indazole-5-carboxamide]
